Data from PubChem BioAssay AID330 (DTP/NCI, 2004).
Values joined by “and” are separate entries in the source; they are usually repeats but may differ in a detail not shown here. Identical values can stand only once. Inconclusive results and toxic doses are left out. How the source made its calls: active means survival T/C of 150% or more; inactive means T/C below 125% in these data.

System: P388 leukemia ip, CD2F1 mice, survival T/C
Assay: NCI In Vivo Anticancer Drug Screen. Data for tumor model P388 Leukemia (intraperitoneal) in CD2F1 (CDF1) mice
Settings: endpoint: median survival time, higher = longer survival
Method in brief: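 Mice carrying the transplanted tumor received test compound or vehicle. Survival was recorded in each group, and the value is the treated-group measurement divided by that of the vehicle-treated control group.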

[1] = dose: 25.0 mg/kg/injection, schedule: Q01DX009 (ip), vehicle: Klucel (hydroxypropylcellulose) (HPC)
[2] = dose: 50.0 mg/kg/injection, schedule: Q01DX009 (ip), vehicle: Klucel (hydroxypropylcellulose) (HPC)
[3] = dose: 100.0 mg/kg/injection, schedule: Q01DX009 (ip), vehicle: Klucel (hydroxypropylcellulose) (HPC)
[4] = dose: 50.0 mg/kg/injection, schedule: Q01DX005 (ip), vehicle: saline with Tween-80
[5] = dose: 100.0 mg/kg/injection, schedule: Q01DX005 (ip), vehicle: saline with Tween-80
[6] = dose: 200.0 mg/kg/injection, schedule: Q01DX005 (ip), vehicle: saline with Tween-80
[7] = dose: 60.0 mg/kg/injection, schedule: Q01DX005 (ip), vehicle: saline with Tween-80
[8] = dose: 120.0 mg/kg/injection, schedule: Q01DX005 (ip), vehicle: saline with Tween-80
[9] = dose: 240.0 mg/kg/injection, schedule: Q01DX005 (ip), vehicle: saline with Tween-80
[10] = dose: 50.0 mg/kg/injection, schedule: Q01DX005 (ip), vehicle: Klucel (hydroxypropylcellulose) (HPC)
[11] = dose: 100.0 mg/kg/injection, schedule: Q01DX005 (ip), vehicle: Klucel (hydroxypropylcellulose) (HPC)
[12] = dose: 200.0 mg/kg/injection, schedule: Q01DX005 (ip), vehicle: Klucel (hydroxypropylcellulose) (HPC)
[13] = dose: 12.5 mg/kg/injection, schedule: Q01DX009 (ip), vehicle: saline with Tween-80
[14] = dose: 25.0 mg/kg/injection, schedule: Q01DX009 (ip), vehicle: saline with Tween-80
[15] = dose: 50.0 mg/kg/injection, schedule: Q01DX009 (ip), vehicle: saline with Tween-80

Measured: T/C

COc1cc(N(CCCl)CCCl)ccc1/C=N\NC(=O)c1cccnc1
inactive: dose: 25.0 mg/kg/injection, schedule: Q01DX007 (ip), vehicle: Klucel (hydroxypropylcellulose) (HPC) 95 % of control | dose: 50.0 mg/kg/injection, schedule: Q01DX007 (ip), vehicle: Klucel (hydroxypropylcellulose) (HPC) 108 % of control | dose: 100.0 mg/kg/injection, schedule: Q01DX007 (ip), vehicle: Klucel (hydroxypropylcellulose) (HPC) 100 % of control | dose: 200.0 mg/kg/injection, schedule: Q01DX007 (ip), vehicle: Klucel (hydroxypropylcellulose) (HPC) 101 % of control

COc1ccc(C)cc1C(=C=C=C=C(c1cc(C)ccc1OC)c1ccccc1OCc1ccccc1)c1ccccc1OCc1ccccc1
inactive: [1] 101 % of control | [2] 100 % of control | [3] 93 % of control

CN1C(c2ccccc2)CC(=NOCc2ccccc2)CC1c1ccccc1 (stereo unspecified)
inactive: [4] 98 % of control | [5] 96 % of control | [6] 89 % of control

C=C1C(=O)OC2/C=C(\C)C(OC(C)=O)C/C=C(\C)CC(OC(=O)/C(=C/CO)CO)C12 (stereo unspecified)
inactive: dose: 100.0 mg/kg/injection, schedule: Q01DX001 (ip), vehicle: Klucel (hydroxypropylcellulose) (HPC) 99 % of control | dose: 200.0 mg/kg/injection, schedule: Q01DX001 (ip), vehicle: Klucel (hydroxypropylcellulose) (HPC) 99 % of control | dose: 400.0 mg/kg/injection, schedule: Q01DX001 (ip), vehicle: Klucel (hydroxypropylcellulose) (HPC) 123 % of control

O=C(Cc1nc2cc(Cl)c(Cl)cc2nc1CC(=O)c1ccccc1)c1ccccc1
inactive: [7] 102 % of control | [8] 94 % of control | [9] 96 % of control

CCN=C(C1=C(O)c2ccccc2C1=O)c1ccccc1
inactive: dose: 50.0 mg/kg/injection, schedule: Q04DX002 (ip), vehicle: saline with Tween-80 94 % of control | dose: 100.0 mg/kg/injection, schedule: Q04DX002 (ip), vehicle: saline with Tween-80 119 % of control | dose: 200.0 mg/kg/injection, schedule: Q04DX002 (ip), vehicle: saline with Tween-80 111 % of control

C=Cc1ccc(NC(=O)CC2SC(=O)NC2=O)cc1 (stereo unspecified)
inactive: [4] 103 % of control | [5] 97 % of control | [6] 103 % of control

O=c1c2ccccc2ncn1CC1(O)CC2NCCCC2O1 (stereo unspecified)
inactive: dose: 2.0 mg/kg/injection, schedule: Q01DX009 (ip), vehicle: distilled water + Tween-80 115 % of control | dose: 4.0 mg/kg/injection, schedule: Q01DX009 (ip), vehicle: distilled water + Tween-80 117 % of control | dose: 5.0 mg/kg/injection, schedule: Q01DX009 (ip), vehicle: Klucel (hydroxypropylcellulose) (HPC) 116 % of control | dose: 8.0 mg/kg/injection, schedule: Q01DX009 (ip), vehicle: distilled water + Tween-80 102 % of control | dose: 10.0 mg/kg/injection, schedule: Q01DX009 (ip), vehicle: Klucel (hydroxypropylcellulose) (HPC) 107 % of control | dose: 16.0 mg/kg/injection, schedule: Q01DX009 (ip), vehicle: distilled water + Tween-80 117 % of control | dose: 20.0 mg/kg/injection, schedule: Q01DX009 (ip), vehicle: Klucel (hydroxypropylcellulose) (HPC) 98 % of control

CC(=O)OCc1c(-c2ccccc2)sc2ccccc2c1=O
inactive: [10] 96 % of control | [11] 102 % of control | [12] 97 % of control

CC(C)CC(=N)CC(C)C
inactive: [4] 100 % of control | [5] 100 % of control | [6] 96 % of control

CN1C(=O)C(CCCN=C(N)N)NC1=S (stereo unspecified)
inactive: dose: 60.0 mg/kg/injection, schedule: Q01DX005 (ip), vehicle: saline 98 % of control | dose: 120.0 mg/kg/injection, schedule: Q01DX005 (ip), vehicle: saline 111 % of control | dose: 240.0 mg/kg/injection, schedule: Q01DX005 (ip), vehicle: saline 104 % of control

CN(C)CC/C([O-])=N/[n+]1c2c(nc3ccccc31)-c1cccc3cccc-2c13
inactive: [1] 109 % of control | [2] 111 % of control | [3] 116 % of control

CNc1c(F)c(C#N)c(F)c(F)c1C#N
inactive: [13] 96 % of control | [14] 89 % of control | [15] 100 % of control

CS(=O)(=O)N(CC(=O)O)Cc1ccc(Cl)c(Cl)c1
inactive: dose: 25.0 mg/kg/injection, schedule: Q04DX003 (ip), vehicle: Klucel + Tween-80 92 % of control | dose: 50.0 mg/kg/injection, schedule: Q04DX003 (ip), vehicle: Klucel + Tween-80 100 % of control | dose: 100.0 mg/kg/injection, schedule: Q04DX003 (ip), vehicle: Klucel + Tween-80 98 % of control | dose: 200.0 mg/kg/injection, schedule: Q04DX003 (ip), vehicle: Klucel + Tween-80 91 % of control

CC1CCC2C(OC(=O)C23CO3)C2(C)C(=O)C=CC12 (stereo unspecified)
inactive: dose: 2.5 mg/kg/injection, schedule: Q01DX009 (ip), vehicle: saline + alcohol 86 % of control | dose: 5.0 mg/kg/injection, schedule: Q01DX009 (ip), vehicle: saline + alcohol 100 % of control | dose: 10.0 mg/kg/injection, schedule: Q01DX009 (ip), vehicle: saline + alcohol 101 % of control | dose: 20.0 mg/kg/injection, schedule: Q01DX009 (ip), vehicle: saline + alcohol 99 % of control

CCOC(=O)C(C(=O)OCC)[N+](=O)[O-]
inactive: [15] 100 % of control | dose: 100.0 mg/kg/injection, schedule: Q01DX009 (ip), vehicle: saline with Tween-80 93 % of control

CC(=O)NCCCCCC(=O)N(C)C
inactive: [10] 96 % of control | [11] 90 % of control | [12] 98 % of control | dose: 400.0 mg/kg/injection, schedule: Q01DX005 (ip), vehicle: Klucel (hydroxypropylcellulose) (HPC) 98 % of control

COP(=O)(OC)C1c2ccccc2-c2cccc(C(=O)O)c21 (stereo unspecified)
inactive: [10] 105 % of control | [11] 106 % of control | [12] 110 % of control

O=NNc1ncc(Cl)cc1Cl
inactive: dose: 1.56 mg/kg/injection, schedule: Q01DX009 (ip), vehicle: water 106 % of control | dose: 3.12 mg/kg/injection, schedule: Q01DX009 (ip), vehicle: water 101 % of control | dose: 6.0 mg/kg/injection, schedule: Q01DX009 (ip), vehicle: water 118 % of control | dose: 6.25 mg/kg/injection, schedule: Q01DX009 (ip), vehicle: water 107 % of control | dose: 12.5 mg/kg/injection, schedule: Q01DX009 (ip), vehicle: water 111 % of control and 120 % of control | dose: 25.0 mg/kg/injection, schedule: Q01DX009 (ip), vehicle: water 120 % of control

CN(C)C(=O)Nc1nc2cc(Cl)c(Cl)cc2[nH]1
inactive: dose: 200.0 mg/kg/injection, schedule: Q04DX003 (oral), vehicle: saline with Tween-80 102 % of control | dose: 400.0 mg/kg/injection, schedule: Q04DX003 (oral), vehicle: saline with Tween-80 117 % of control | dose: 800.0 mg/kg/injection, schedule: Q04DX003 (oral), vehicle: saline with Tween-80 112 % of control | dose: 1600.0 mg/kg/injection, schedule: Q04DX003 (oral), vehicle: saline with Tween-80 121 % of control

Nc1nc(N)c2nc(-c3ccc([N+](=O)[O-])cc3)c(Cl)nc2n1
inactive: dose: 15.0 mg/kg/injection, schedule: Q01DX005 (ip), vehicle: saline with Tween-80 98 % of control | dose: 30.0 mg/kg/injection, schedule: Q01DX005 (ip), vehicle: saline with Tween-80 98 % of control | [7] 95 % of control and 98 % of control | [8] 92 % of control

CCN(CC)Cc1cc(C(CC(=O)c2ccccc2)S(=O)(=O)c2ccc(C)cc2)ccc1O (stereo unspecified)
inactive: [13] 88 % of control | [14] 89 % of control | dose: 50.0 mg/kg/injection, schedule: Q01DX009 (ip), vehicle: saline 93 % of control

COc1ccccc1NC(=O)C1=CNC(C)=C(C(=O)Nc2ccccc2OC)C1/C=C/c1ccccc1 (stereo unspecified)
inactive: [7] 100 % of control | [8] 105 % of control | [9] 105 % of control
